Laboratory results taken from ChEMBL document CHEMBL1150020, “Optical isomers of RP 64406: New potent antiglutamate agents” (1993).

Test system: Rattus norvegicus
Assay: Ability to protect against glutamate-induced convulsion in rat upon i.p. administration
Format: functional
[1] = Rattus norvegicus, ip, read-out: ED50

| Compound | ED50 [1] [mg/kg] | ED50 [mg/kg] |
| --- | --- | --- |
| CSCCn1c(=N)sc2cc(OC(F)(F)F)ccc21 | 1 | – |
| C[S+]([O-])CCn1c(=N)sc2cc(OC(F)(F)F)ccc21 (single isomer, unassigned; (+)) | – | 1 |
| C[S+]([O-])CCn1c(=N)sc2cc(OC(F)(F)F)ccc21 (single isomer, unassigned; (-)) | 1.6 | – |
| C[S+]([O-])CCn1c(=N)sc2cc(OC(F)(F)F)ccc21 (stereo in doubt; 3) | – | 1.1 |
| Nc1nc2ccc(OC(F)(F)F)cc2s1 [RILUZOLE] | 3.2 | – |
